From patent US20240091242A1, “LIPIDS THAT REDUCE LUNG DAMAGE, IMPROVE PULMONARY FUNCTION AND DECREASE PRO-INFLAMMATORY CYTOKINES” (Signpath Pharma, Inc., priority 2021, published 2024)

System: pro-inflammatory cytokines in the plasma
Assay: Multiplex analysis of cytokine levels in plasma, murine LPS ARDS model
Format: in vivo, mouse
Conditions: for IL3 level in plasma / IL7 level in plasma / MCP-1 level in plasma / MIP-1alpha level in plasma / MIP-2 level in plasma: in pg/mL (unit assumed)
Source text: C57B16/N mice were obtained from Charles River Laboratories (Montreal, Quebec). Male mice, 20-25 g of body weight, were used throughout the studies. Animals were housed in specific pathogen[…]free conditions, and all experiments were approved by Institutional Animal Care and Use Committee (IPST_SL20200402-1). Animal studies are reported in compliance with […] guidelines.
All delivered mice were kept for one week as an acclimatization period prior to performing any experiments. Animals were housed in a maximum of two mice per cage under a 12[…]h light/12[…]h dark cycle at a temperature of ˜20-22° C. and 40-60% humidity. Food and water were available ad libitum. Each cage of mice was blindly assigned for different treatments or maintained as a control group according to the experimental design. The individual who carried out the experiments was not blinded as to treatment, but data analysis and experiments were otherwise blinded to avoid any bias.
In the ARDS group, mice received Escherichia coli O111:B4 lipopolysaccharide (50 μg in 0.05 mL saline, i.t.), while, in the control group, the animals received an instillation of saline (0.05 mL, i.t.). For intratracheal instillation, mice were slightly anesthetized with isoflurane.
The lipid SPPCT-800 was dissolved in water (low dose—2 mg/ml; high dose—20 mg/ml). For the 24-hour study, two treatment approaches were used. Mice received a single dose of SPPCT-800 (200 mg/kg, per gavage) as prevention (30 minutes before the LPS instillation), or as a single dose of either 20 mg/kg or 200 mg/kg as therapy (3-hour after the LPS instillation). For the 72-hour study, mice received a total of 8 treatments of SPPCT-800 (200 mg/kg) starting at 3-hour after the LPS instillation. Disease progression in mice was assessed by the evaluation of pulmonary functions, blood oxygen saturation, and body weight change. On the terminal day of each study (24 hours or 72 hours), measurement of cytokine levels in the plasma and BALF, and histopathology evaluations were done.
Multiplex analysis of mediators. The inventors quantified 31 different mediators in the BALF and plasma by using a Discovery Assay® (Mouse Cytokine and Chemokine Array 31-Plex (MD31), Eve Technologies Corp, Calgary, AB, Canada). The multiplex assay was performed at Eve Technologies using the Bio-Plex™ 200 system (Bio-Rad Laboratories, Inc., Hercules, CA, USA) and a Milliplex Mouse Cytokine/Chemokine kit (Millipore, St. Charles, MO, USA) according to Eve Tech protocol. The 31-plex consisted of Eotaxin, G-CSF, GM-CSF, IFN-γ, IL-1α, IL-1β, IL-2, IL-3, IL-4, IL-5, IL-6, IL-7, IL-9, IL-10, IL-12 (p40), IL-12 (p70), IL-13, IL-15, IL-17, IP-10, KC, LIF, MCP-1, M-CSF, MIG, MIP-1α, MIP-1β, MIP-2,RANTES, TNFα, and VEGF. The assay sensitivities of these markers range from 0.1 pg/mL to 33.3 pg/mL. Individual analytes' values and other assay details are available on Eve Technologies' website and in the Milliplex protocol.
Statistical Analysis. Results are expressed as means±SEM. Comparisons were made on normally distributed data using ANOVA, followed by a Fisher post hoc test to assess the difference between LPS+vehicle group with GraphPad Prism Software version 8.0 (San Diego, CA, USA). Differences were considered statistically significant when P values were less than 0.05. (* Shown difference versus Sham animals and # shown difference versus LPS+Vehicle group. * Means P<0.05, ** P<0.01, *** P<0.001 while # means P<0.05, ##P<0.01 and ###P<0.001).

[1] = 24-hours, Pre: SPP4040 30 minutes before LPS
[2] = 24-hours, Thera: SPP4040 3 hours after LPS
[3] = 72-hours, Thera: eight SPP4040 injections over 72 hours after LPS

CCCCCCCCCCCCCC(=O)OCC(COP(=O)([O-])OCC(COC(=O)CCC)OC(=O)CCC)OC(=O)CCCCCCCCCCCCC.CCCCCCCCCCCCCC(=O)OCC(COP(=O)([O-])OCC(COC(=O)CCC)OC(=O)CCC)OC(=O)CCCCCCCCCCCCC.[Mg+2] (centres unmarked) [SPPCT-800]
Eotaxin level in plasma [1]: 719 ± 138 | G-CSF level in plasma [1]: 21035 ± 2241 | GM-CSF level in plasma [1]: 12 ± 2 | IFN gamma level in plasma [1]: 1 ± 1 | IL1-alpha level in plasma [1]: 3196 ± 3107 | IL1-beta level in plasma [1]: 3.8 ± 0.7 | IL2 level in plasma [1]: 11 ± 3 | IL4 level in plasma [1]: 0.2 ± 0.1 | IL5 level in plasma [1]: 8 ± 2 | IL6 level in plasma [1]: 176 ± 29 | IL9 level in plasma [1]: 2 ± 1 | IL10 level in plasma [1]: 57 ± 8 | IL12 (p40) level in plasma [1]: 12 ± 1 | IL12 (p70) level in plasma [1]: 17 ± 7 | IL13 level in plasma [1]: 22 ± 3 | IL15 level in plasma [1]: 63 ± 15 | IL17 level in plasma [1]: 2.6 ± 0.3 | IP-10 level in plasma [1]: 790 ± 206 | KC level in plasma [1]: 1271 ± 224 | LIF level in plasma [1]: 1.3 ± 0.2 | LIX level in plasma [1]: 470 ± 145 | M-CSF level in plasma [1]: 12 ± 1 | MIG level in plasma [1]: 2486 ± 203 | MIP-1beta level in plasma [1]: 109 ± 8 | RANTES level in plasma [1]: 200 ± 28 | TNF-alpha level in plasma [1]: 14 ± 1 | VEGF level in plasma [1]: 0.5 ± 0.1 | IL3 level in plasma [1]: 0.9 ± 0.1 | IL7 level in plasma [1]: 8 ± 2 | MCP-1 level in plasma [1]: 86 ± 20 | MIP-1alpha level in plasma [1]: 88 ± 4 | MIP-2 level in plasma [1]: 138 ± 7 | Eotaxin level in plasma [2]: 855 ± 228 | G-CSF level in plasma [2]: 22915 ± 410 | GM-CSF level in plasma [2]: 11 ± 1 | IFN gamma level in plasma [2]: 1 ± 1 | IL1-alpha level in plasma [2]: 159 ± 39 | IL1-beta level in plasma [2]: 3.6 ± 0.6 | IL2 level in plasma [2]: 16 ± 1 | IL4 level in plasma [2]: 0.4 ± 0.2 | IL5 level in plasma [2]: 11 ± 2 | IL6 level in plasma [2]: 155 ± 30 | IL9 level in plasma [2]: 6 ± 2 | IL10 level in plasma [2]: 90 ± 32 | IL12 (p40) level in plasma [2]: 12 ± 2 | IL12 (p70) level in plasma [2]: 40 ± 19 | IL13 level in plasma [2]: 22 ± 2 | IL15 level in plasma [2]: 49 ± 16 | IL17 level in plasma [2]: 2.3 ± 0.6 | IP-10 level in plasma [2]: 605 ± 102 | KC level in plasma [2]: 764 ± 274 | LIF level in plasma [2]: 1.5 ± 0.2 | LIX level in plasma [2]: 547 ± 203 | M-CSF level in plasma [2]: 16 ± 4 | MIG level in plasma [2]: 2593 ± 317 | MIP-1beta level in plasma [2]: 120 ± 29 | RANTES level in plasma [2]: 270 ± 70 | TNF-alpha level in plasma [2]: 14 ± 1 | VEGF level in plasma [2]: 0.6 ± 0.1 | IL3 level in plasma [2]: 0.5 ± 0.7 | IL7 level in plasma [2]: 4 ± 1 | MCP-1 level in plasma [2]: 157 ± 62 | MIP-1alpha level in plasma [2]: 92 ± 7 | MIP-2 level in plasma [2]: 128 ± 5 | TNF-α levels in the plasma (in words) (72-hour study, P<0.05): markedly reduced | Eotaxin level in plasma [3]: 464 ± 252 | G-CSF level in plasma [3]: 1116 ± 502 | GM-CSF level in plasma [3]: 6 ± 2 | IFN gamma level in plasma [3]: 6 ± 2 | IL1-alpha level in plasma [3]: 63 ± 27 | IL1-beta level in plasma [3]: 6.8 ± 3.8 | IL2 level in plasma [3]: 34 ± 10 | IL4 level in plasma [3]: 0.6 ± 0.4 | IL5 level in plasma [3]: 2 ± 1 | IL6 level in plasma [3]: 76 ± 31 | IL9 level in plasma [3]: 3 ± 1 | IL10 level in plasma [3]: 5 ± 1 | IL12 (p40) level in plasma [3]: 8 ± 1 | IL12 (p70) level in plasma [3]: 11 ± 5 | IL13 level in plasma [3]: 23 ± 3 | IL15 level in plasma [3]: 40 ± 22 | IL17 level in plasma [3]: 4 ± 3 | IP-10 level in plasma [3]: 150 ± 34 | KC level in plasma [3]: 502 ± 150 | LIF level in plasma [3]: 0.5 ± 0.1 | LIX level in plasma [3]: 574 ± 445 | M-CSF level in plasma [3]: 5 ± 2 | MIG level in plasma [3]: 447 ± 137 | MIP-1beta level in plasma [3]: 55 ± 13 | RANTES level in plasma [3]: 19 ± 2 | TNF-alpha level in plasma [3]: 7 ± 2 | VEGF level in plasma [3]: 7.4 ± 2.4 | IL3 level in plasma [3]: 0.1 ± 0.1 | IL7 level in plasma [3]: 3 ± 1 | MCP-1 level in plasma [3]: 34 ± 6 | MIP-1alpha level in plasma [3]: 133 ± 11 | MIP-2 level in plasma [3]: 56 ± 17 | IL-1β, IL-2, IL-3, IL-4, IL-5, IL-6, IL-7, IL-9, IL-10, IL-12 (p40), IL-12 (p70), IL-13, IL-15 and IL-17 in plasma (in words) (at 24 hours): markedly reduced | MCP-1 in the plasma (in words) (at 24 hours and at 72 hours): inhibited | MIP-1α and MIP 1-β in the plasma (in words) (at 24 hours and at 72 hours): Suppressive effects | GM-CSF in the plasma (in words) (at 24 hours, 200 mg/kg preventive, 20 mg/kg therapeutic and 200 mg/kg therapeutic, P<0.001): highly significant depressions | TNF-α in the plasma (in words) (at 24 hours, all three single dose groups, P<0.001): markedly reduced | IFN-γ levels in the plasma (in words) (at 24 hours, all three single-dose groups, P<0.01): profoundly depressed | levels of plasma IL-1α (in words) (at 24 hours, any of the mouse groups): did not reduce | IFN-γ levels in the plasma (in words) (at 72 hours): Large reductions | GM-CSF in the plasma (in words) (at 72 hours, P<0.01): significant decreases | RANTES in the plasma (in words) (at both 24 hours and 72 hours): suppressed | MIG, IP10 and Eotaxin (in words) (marked suppression in the plasma or the BALF, but not in both): mixed | G-CSF, VEGF, KC, LIF, LIX and M-CSF in the plasma (in words) (mouse, in vivo): suppressed | number of the 15 interleukins tested in which major reductions were consistently noted (plasma and BALF): 14
